{"source": "patent US20090270626A1", "about": "“STABLE BISTHIOL COMPOUNDS FOR RA[…] THERAPY” (Organix, Inc., priority 2008, published 2009)", "assay": "Stability of the deprotected bisthiol measured by HPLC with UV and mass detection", "format": "physicochemical", "conditions": "room temperature", "method": "Stability of compound O-5648 (see Example 1, above) was measured by HPLC with UV and mass detection. The bisthiol free base was stable up to 100 hours at room temperature in methanol exposed to air.\nThe bisthiol dihydrochloride salt was stable in MeOH up to 150 hours at room temperature.\nThe solid bisthiol dihydrochloride salt exposed to air was stable for >170 hours at room temperature.", "note": "Structures can show the parent of a compound that is named as a salt.", "data": [{"compound": "CCC(=O)C1C2CC[C@H](C[C@H]1c1ccc(F)cc1)N2CCCN(CCS)CC(=O)NCCS", "note": "(stereo partly drawn) [O-5648, N-[2-(3′-N′-Propyl-(1″R)-3″α-(4-fluorophenyl)tropane-2″β-(1-propanoyl)-[(2-mercapto-ethyl)-amino]-(2-mercapto-ethyl-acetamide, dihydrochloride salt]", "values": [{"measurement": "time stable (bisthiol dihydrochloride salt in MeOH)", "setting": "bisthiol dihydrochloride salt, in MeOH", "value": "up to 150 hours"}, {"measurement": "time stable (bisthiol free base in methanol)", "setting": "bisthiol free base, in methanol exposed to air", "value": "up to 100 hours"}, {"measurement": "time stable (solid bisthiol dihydrochloride salt)", "setting": "solid bisthiol dihydrochloride salt exposed to air", "value": "> 170", "unit": "h"}]}]}
